The subject of one series is Th1 cells activation. Nature of the series: Mixed leukocyte reaction (MLR), Th1 cells activation by TNBSO3, MTT assay. The conditions noted are these: MLR with TNBSO3-conjugated stimulator cells, FIG. 4. The class given is cell-based, mice. On the procedure: Whether the composition of the present invention has a suppressive effect on the Th1 cells activation which isolate […], IL-12, etc. by reacting with TNBSO3 […] was examined.
The mononuclear cells obtained from spleen of mice as described the above 4 were used for responder cells, and TNBSO3-conjugated cells were used for stimulator cells. The stimulator cells were obtained as follows:
The mononuclear cells were adjusted to be 2×10^7 cells/ml in PBS and the same volume of 20 mM TNBSO3 was added and incubated at 37° C. for 10 min in the dark state. After incubation, the cells wrer washed three times with PBS.
(§1) Each 2×10^5 responder cells and stimulator cells were mixed with each other and cultured for 5 days on the 96-well plate. And RPMI with 10% of serum was used as a medium.
(§2) The above cells were cultured for 24 hours in the presence of 1, 10, 50 and 100 μM of NAPS, TAPS, and PS to examine the proliferation of the cells.
(§3) C2-ceramide was used as control.
(In general: Tetrazolium dyes change colour on reduction, which living cells bring about.)

For series [1], the system named is Th1 cells activation against allogenic cells (PBMC). The series can be described thus: Reactions among allogenic cells, Th1 cells activation, MTT assay. Particulars: FIG. 5. It is filed as cell-based, human.
From the text: Whether the composition of the present invention has a suppressive effect on the Th1 cells activation by allogenic cells in immune reation was examined.
PBMC obtained from different volunteers as described in the above 5 were used for responder cells and stimulator cells respectively. PBMC for stimulator cells were used after X-ray irradiation (3000 rad) to inhibit the proliferation of stimulator cells.
as §1, §2, §3

In series [2] the test system is A431 cells, human skin cancer cell line. The series can be described thus: MTT assay, cytotoxicity in human skin cancer cell line. It is filed as cell-based. Particulars: human, 24 h. As for the experimental part: (§4) Firstly, the cytotoxicity is measured by the MTT assay. Phytosphingosine (PS), phytosphingosine-HCl (PS-HCl), C6-phytosphingosine (C6-PS), CLA-phytosphingosine (CLA-PS), tetraacetyl phytosphingosine (TAPS), and N-acetyl phytosphingosine (NAPS) are dissolved into DMSO to have the final concentration of 1-100 μM.
(§5) In order to study the effects of the compositions of the present invention on the cytotoxicity in the human keratinocyte cell line HaCaT cells, the cell viability is analyzed by the MTT (3-[4,5-dimethylthiazol-2-yl]-2,5-diphenyltetrazolium bromide) assay. HaCaT cells are supplied by Professor N. Fuseng of German Cancer Research in Germany. HaCaT cells are seeded in a density of 1×10^6 cells in a […] and cultured in DMEM (Dulbecco's Modified Eagle Medium) containing 10% fetal bovine serum (FBS, GIBCO), 100 units/ml penicillin, and 100 μg/ml streptomycin for 48 hours. They are treated with trypsin and 1-2×10^4 cells per well are seeded again in a 96-well plate by using a serum-free culture medium, about 3 hours after which they are cultured by treatment with phytosphingosine derivatives. After they are cultured for 24 hours, the MTT reagent is added at a concentration of 2 mg/ml, cultured for 4 hours, suspended in DMSO after removing the culture medium completely in order to measure O.D. at 540 nm. C2-ceramide is used for comparison.
(§6) In order to study the effects of the compositions of the present invention on the cytotoxicity in A431 cells, human skin cancer cell line, the MTT assay is used. The method of cell culture and MTT assay are the same as those in the above method. C2-ceramide is used for comparison.

Experiment in series [3]: as above
It is filed as cell-based. Particulars: human, Cell viability. As for the experimental part:
as §4, §5, §6

The test system of series [4] is human umbilical vein endothelial cells (HUVEC). The series can be described thus: MTT assay, cytotoxicity in HUVEC. The class given is cell-based. Particulars: human, 24 h, 30 μM. On the procedure: as §4, §5
(§7) The MTT assay is used for the above purpose. Primary human umbilical vein endothelial cells are cultured from the human umbilical vein. The method of cell culture and the MTT assay are the same as those in the above. C2-ceramide is used for comparison.

Series [5] can be described thus: MTT assay, cytotoxicity in HUVEC. The conditions noted are these: human. The class given is cell-based, human. As for the experimental part: as §4, §5, §7
A further series has as its system HaCaT cells. The series can be described thus: MTT assay, combined treatment with UVB irradiation. The class given is cell-based, human. The arrangement: Cell viability: unit not given here. Particulars: 1 μM, no UVB, 24 hours, HaCaT. On the procedure: (§8) In order to study the synergistic effect in the cytotoxicity by the cotreatment with administration of the compositions of the present invention and with UVB irradiation, the cell viability is analyzed by MTT assay method in HaCaT cells. On a 100-mm dish, 1×10^6 HaCaT cells are seeded and cultured in DMEM containing 10% fetal bovine serum, 100 units/ml penicillin, and 100 μg/ml streptomycin for 48 hours. They are treated with trypsin, and 1-2×10^4 cells per well are seeded on a 96-well plate again by using a serum-free medium, which is removed after about 3 hours. HaCaT cells are washed with PBS three times, and 3.5 ml of PBS per plate is added. It is then irradiated with 200 J/m^2 of UVB. After irradiation, the medium is replaced with a DMEM medium. Then it is treated with the phytosphingosine derivatives of the present invention, and cultured for 24 hours. After 2 mg/ml of the MTT reagent is added, it is cultured for 4 hours. The medium is removed completely, the cells are suspended in DMSO, and O.D. is measured at 540 nm.

Series [6] is described as follows: MTT assay, combined treatment with UVB irradiation. It is filed as cell-based, human. Particulars: human, HaCaT cells, HaCaT, read-out: Cell viability. More on the design: Cell viability: unit not given here. As for the experimental part: as §8
Series [7] in a line: MTT assay, cytotoxicity in immune cells separated from spleen of mice. Particulars: BDF, mouse. The class given is cell-based. On the procedure: The effect of the composition of the present invention on the cytotoxicity in immune cells (T cells, B cells, macrophages, monocytes, etc.) was examined. The spleen was removed from normal mice (BDF) and single cells were obtained from the spleen by mechanical aggregation method. And mononuclear cells containing T cells, B cells, macrophages and monocytes were isolated from single cells by density gradient centrifugation method using Ficoll Hypaque. Briefly, single cells were treated with PBS and overlayed on Ficoll Hypaque and centrifuged at 1500 rpm for 30 min. After centrifugation, the cells around the boundary of the Ficoll-Hapaque were collected and washed three times with PBS. The isolated cells were cultured for 24 hours in the presence of 1, 10, 50 and 100 μM of NAPS, TAPS, and PS to examine the effect of cytotoxicity, i.e. the degree of proliferation of the cells. C2-ceramide was used as control. The medium used in this experiment was RPMI 1640 suplemented with 10% of FBS and 100 μg/ml of penicillin and streptomycin.

The nature of series [8]: MTT assay, cytotoxicity in human keratinocyte cell line. The class given is cell-based. Particulars: human, Cell viability. On the procedure:
as §4, §5

The subject of series [9] is HaCaT cells human keratinocyte cell line. Nature of the series: MTT assay, combined administration with Vit D3 or calcipotriol. The class given is cell-based. The conditions noted are these: 1 μM singly, 24 hours. As for the experimental part: (§9) In order to study the synergistic effect in the cytotoxicity when the compositions of the present invention are administered in combination with Vit D3 or calcipotriol, the cell viability is analyzed by MTT assay method in HaCaT cells human keratinocyte cell line.
(§10) To HaCaT cells, 1 μM of Vit D3 or calcipotriol, or 10 μM each of NAPS and TAPS, is administered singly or in combination with each other, and they are cultured for 24 hours. And the effects of these drugs on the cytotoxicity according to the single or combined administration are observed by MTT assay. C2-ceramide is used for comparison.

Experiment in series [10]: as above
The conditions noted are these: human, HaCaT cells, 1 μM singly, 24 hours, HaCaT; read-out: Cell viability. The class given is cell-based, human. As for the experimental part: as §9, §10

Where two headings read alike, the source gives them in different places.

One may read the viability as a per cent measure of how many cells are alive, often set against a control. The IC50 is the concentration that gives 50% inhibition.

With `CCCCCCCCCCCCCC[C@@H](O)[C@@H](O)[C@@H](N)CO` [PS, phytosphingosine], the “concentration showing a suppressive effect on Th1 cells activation” value with Th1 cells activation came to 50 µM. Moreover, the “suppressive effect on Th1 cells activation against allogenic cells” value in series [1] (50 μM) is on record as “suppress completely”. Besides, in series [1], the “concentration showing a suppressive effect on Th1 cells activation against allogenic cells” value worked out at 50 μM. The Cell viability in series [2] (10 µM) was 30 ± 1.9; with HaCaT cells it was 133 ± 3.4. The cytotoxicity in [2] (50 μM) was 95-98%; in series [4], 86-91%. The viability at 24 h, 3 µM in series [3] came to 85 ± 10.7%; in [6] (3 μM + UVB 200 J/m^2, 24 hours), 30 ± 3.3%; in series [6] (3 μM, no UVB, 24 hours), 93 ± 5.5%; in series [8] it was 93 ± 3%. For the same molecule, the viability at 24 h, 50 µM in series [3] stood at 2 ± 0.2%. Also, the viability at 24 h, 3.5 µM in [5] came to 64 ± 4.7%. In addition, the viability at 24 h, 7 µM in series [5] is 19 ± 1.8%. In [5], this molecule returned a viability at 24 h, 15 µM of 14 ± 0.9%. In addition, the viability at 24 h, 30 µM in [5] worked out at 13 ± 1%; in series [8], 51 ± 9.6%. Further, the viability at 24 h, 1 µM in series [6] (1 μM + UVB 200 J/m^2, 24 hours) amounted to 38 ± 7.9%; in [8] it was 97 ± 11.1%. For the same molecule, the viability at 24 h, 5 µM in series [6] (5 μM + UVB 200 J/m^2, 24 hours) was 28 ± 2.3%; in series [6] (5 μM, no UVB, 24 hours), 85 ± 10.6%. In addition, the viability at 24 h, 10 µM in [6] (10 μM + UVB 200 J/m^2, 24 hours) turned out to be 3 ± 0.9%; in [6] (10 μM, no UVB, 24 hours) it was 71 ± 7.6%; in [8], 86 ± 10.1%. This molecule also came in with an IC50 at 24 h in series [7] of approximately 75 µM.
Turning to `C=C1/C(=C\C=C2/CCC[C@]3(C)[C@@H]([C@H](C)/C=C/[C@@H](O)C4CC4)CC[C@@H]23)C[C@@H](O)C[C@@H]1O` [calcipotriol, reference compound], the toxicity in series [9] was 23%. In series [10], the viability at 24 h, 1 µM was found to be 77 ± 5%.

(Values after patent US20060166934A1, “Composition comprising phytosphingosine derivatives for apoptosis induction” (Tae-Yoon Kim, priority 2002, published 2006).)
